# Measured values taken from patent US12421249B2, “Inhibitors of APOL1 and methods of using same” (Vertex Pharmaceuticals Incorporated, priority 2020, dated 2025).
# Molecular target: T1, APOL1 G1 (Homo sapiens, UniProt O14791, I384M/S342G)
# T1 sequence (O14791 28-398 S342G/I384M): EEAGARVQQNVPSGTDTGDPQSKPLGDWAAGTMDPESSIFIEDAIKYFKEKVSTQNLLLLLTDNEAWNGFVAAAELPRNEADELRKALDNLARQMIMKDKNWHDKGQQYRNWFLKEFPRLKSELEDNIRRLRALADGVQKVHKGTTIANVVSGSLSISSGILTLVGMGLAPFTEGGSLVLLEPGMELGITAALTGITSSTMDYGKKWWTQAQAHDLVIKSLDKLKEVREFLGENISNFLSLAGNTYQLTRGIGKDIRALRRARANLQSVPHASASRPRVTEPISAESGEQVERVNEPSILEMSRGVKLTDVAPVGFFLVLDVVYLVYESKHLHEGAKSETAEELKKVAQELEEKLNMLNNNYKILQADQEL
# Test: Trypanosoma brucei brucei Lysis Assay Using APOL1 Recombinant Protein (AlamarBlue viability readout)
# Type: cell-based
# Conditions: Trypanosome Assay
# In short: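 Percent viability comes from AlamarBlue (resazurin→resorufin) fluorescence interpolated on a standard curve of known parasite numbers, with no-APOL1 wells as 100%. Parasites (Lister 427 bloodstream form, 120,000/well, serum-free assay medium) meet 0.05 μg/mL APOL1 (~EC90). Compounds span a 10-point series, 0.1% DMSO final.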
smiles,measurement,setting,value
"[2H]C1([2H])O[C@@]2(C[C@@H](c3cn(C)nn3)N[C@@H](C)C2)c2sc(Cl)cc2[C@]1([2H])O [Compound 385, (2S,4S,4′S,6S)-2′-chloro-4′,5′,5′-trideuterio-2-methyl-6-(1-methyltriazol-4-yl)spiro[piperidine-4,7′-thieno[2,3-c]pyran]-4′-ol]",IC50,"IP50 = IC50 for cell proliferation, read-out: Trypanosome Assay IP50",< 50 nM
same,Emax,read-out: Trypanosome Assay Max Activity (%),104%
